Measurements published in PMC8805257, “Molecular and functional characterization of a conserved odorant receptor from Aedes albopictus” (Parasites & Vectors, 2022).

Key:
Assay type in all cases: cell-based
[1] = molecular target: T1, AalbOr11 (odorant receptor 11) (Aedes albopictus, UniProt A0ABM1ZVX3); assay: two-electrode voltage clamp in Xenopus oocytes; current […] nA at […]
T1 construct: with AalbOrco
T1 sequence (A0ABM1ZVX3 1-420): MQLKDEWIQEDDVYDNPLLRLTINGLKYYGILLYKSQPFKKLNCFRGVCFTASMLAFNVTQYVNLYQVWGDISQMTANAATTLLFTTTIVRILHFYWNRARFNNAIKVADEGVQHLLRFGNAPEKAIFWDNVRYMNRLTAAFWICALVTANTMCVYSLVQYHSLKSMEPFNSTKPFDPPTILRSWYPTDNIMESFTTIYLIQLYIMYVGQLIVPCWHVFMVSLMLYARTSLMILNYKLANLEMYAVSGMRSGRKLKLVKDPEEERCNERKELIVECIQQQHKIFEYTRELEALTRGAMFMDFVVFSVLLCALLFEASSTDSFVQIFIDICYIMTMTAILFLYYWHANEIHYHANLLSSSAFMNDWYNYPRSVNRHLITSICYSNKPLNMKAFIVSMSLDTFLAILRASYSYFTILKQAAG
T1 sequence (W8NXX6 1-479 partner): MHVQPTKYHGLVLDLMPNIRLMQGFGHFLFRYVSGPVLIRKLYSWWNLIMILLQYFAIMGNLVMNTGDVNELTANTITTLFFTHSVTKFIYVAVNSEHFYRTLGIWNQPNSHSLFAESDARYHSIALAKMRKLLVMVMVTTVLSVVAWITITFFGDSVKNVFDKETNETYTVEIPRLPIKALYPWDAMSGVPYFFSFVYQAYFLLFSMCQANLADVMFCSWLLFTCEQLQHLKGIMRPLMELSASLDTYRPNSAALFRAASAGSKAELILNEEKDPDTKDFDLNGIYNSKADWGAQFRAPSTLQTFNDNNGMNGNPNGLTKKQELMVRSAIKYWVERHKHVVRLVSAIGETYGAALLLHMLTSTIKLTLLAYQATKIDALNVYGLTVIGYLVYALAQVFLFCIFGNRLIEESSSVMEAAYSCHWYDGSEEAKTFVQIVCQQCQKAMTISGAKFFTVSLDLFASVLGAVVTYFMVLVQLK

[2] = molecular target: T1, AalbOr11 (odorant receptor 11); assay: two-electrode voltage clamp in Xenopus oocytes co-expressing AalbOr11/AalbOrco, concentration-response
[3] = molecular target: T1, AalbOr11 (odorant receptor 11); assay: two-electrode voltage clamp in Xenopus oocytes, screen at […]
[4] = molecular target: T1, AalbOr11 (odorant receptor 11); assay: two-electrode voltage clamp in Xenopus oocytes co-expressing AalbOr11/AalbOrco, concentration-response; remark: listed apart in the source

CC(=O)c1ccccc1 [acetophenone]
two-electrode voltage clamp in Xenopus oocytes; current >300 nA at 10^-4 M [1]: five aromatics 3-methylindole, 2-ethyltoluene, indole, acetophenone, and 2-ethylphenol

CC(=O)c1cccs1 [2-acetylthiophene]
two-electrode voltage clamp in Xenopus oocytes co-expressing AalbOr11/AalbOrco, [2]: indole was replaced with 2-acetylthiophene to conduct concentration gradient assay

COC(=O)c1ccccc1C [methyl-2-methylbenzoate]
two-electrode voltage clamp in Xenopus oocytes, screen at 10^-4 M [3]: AalbOr11 was sensitive to human odor, such as indole, 3-methylindole, and methyl-2-methylbenzoate

CC1(C)C(=O)[C@]2(C)CC[C@H]1C2 [(−)-fenchone]
two-electrode voltage clamp in Xenopus oocytes; current >300 nA at 10^-4 M [1]: The seven strong ligands comprised two terpenes (+)-fenchone and (−)-fenchone

Cc1c[nH]c2ccccc12 [3-methylindole]
two-electrode voltage clamp in Xenopus oocytes; current >300 nA at 10^-4 M [1]: five aromatics 3-methylindole, 2-ethyltoluene, indole, acetophenone, and 2-ethylphenol

CCc1ccccc1C [2-ethyltoluene]
EC50 [4]: 62.2 µM

CC1(C)C(=O)[C@@]2(C)CC[C@@H]1C2 [(+)-fenchone]
EC50 [4]: 139 µM

C=CCc1ccc(O)c(OC)c1 [eugenol]
two-electrode voltage clamp in Xenopus oocytes, screen at 10^-4 M [3]: except eugenol, which could activate AalbOr11 but could not activate AgOr11

CCc1ccccc1O [2-ethylphenol]
two-electrode voltage clamp in Xenopus oocytes; current >300 nA at 10^-4 M [1]: five aromatics 3-methylindole, 2-ethyltoluene, indole, acetophenone, and 2-ethylphenol

c1ccc2[nH]ccc2c1 [indole]
two-electrode voltage clamp in Xenopus oocytes; current >300 nA at 10^-4 M [1]: five aromatics 3-methylindole, 2-ethyltoluene, indole, acetophenone, and 2-ethylphenol
